The text below walks through data of article PMC9714921 (PLOS Pathogens, 2022).

Where “and” joins values, the source holds several entries; their conditions need not be identical. Equal values may be shown once. Where a name gives a salt, the structure may show the parent alone. Read-outs that look alike come from different tables or passages of the source.

For assay [1], the target named is Tzc-ACR-16 (Thelazia callipaeda, UniProt A0A158RD20). Put plainly: cell-based. The assay is classed as cell-based. The procedure:
(§1) cRNA for oocyte injection was prepared with the mMESSAGE mMACHINE T7 kit following manufacturers protocol (Ambion, USA). Concentration was determined using a Nanodrop spectrophotometer. Desired subunit combinations with associated accessory proteins were mixed and diluted with nuclease-free water to a final concentration of 250 ng/uL for each construct.
(§2) Adult female X. laevis oocyte extraction was performed in accordance with the McGill University Animal Use Protocol 2015–7758 following standard protocol. Briefly, frog ovary lobes were placed in a Ca^2+-free OR2 solution (82 mM NaCl, 2 mM KCl, 1 mM MgCl2, 5 mM HEPES buffer, pH 7.3) and manually divided into clusters of <10 oocytes with thin tweezers followed by a 90-minute incubation in 10 mg/mL collagenase type II (Sigma-Aldrich, USA). Oocytes were washed in Ca^2+-free OR2 and placed ND96 solution (NaCl 96 mM, KCl 2 mM, CaCl2 1.8 mM, MgCl2 1 mM and HEPES 5 mM, pH 7.3) supplemented with sodium pyruvate 2.5 mM [86] and incubated at 18°C until cRNA injection. Oocytes were injected with 50 nL (12.5 ng of each injected gene) of the desired cRNA subunit and accessory protein combination mix with the NanojectII (Drummond Scientific, USA). Following injection, oocytes were incubated in ND96 buffer at 18°C until electrophysiology. All electrophysiology was conducted two days post-injection, except for the expression analysis assay in which oocytes were measured every day after injection for three consecutive days.
(§3) All drugs were dissolved in recording solution (NaCl 100 mM, KCl 2.5 mM, CaCl2 1 mM, HEPES 5 mM, pH 7.3) to a stock concentration of 10 mM and diluted to their final recording concentrations. Oxantel and bephenium were first dissolved in DMSO to ensure a final recording concentration contained less than 0.1% DMSO. For agonist profiling, all drugs were diluted to a concentration of 100 μM.
(§4) Oocytes were placed individually in an RC3Z chamber (Harvard Apparatus, USA) submerged in recording solution (NaCl 100 mM, KCl 2.5 mM, CaCl2 1 mM, HEPES 5 mM, pH 7.3). The RC3Z chamber was connected to a perfusion system containing recording solution and ligand solutions. Pulled glass capillaries (World Precision Instruments, USA) were filled with 3M KCl and the tips clipped and checked for appropriate resistance (between 0.5 and 5 MΩ). A 3M KCl agar bridge grounded the oocyte bath chamber. Measurements were made using an Axon Axoclamp 900A amplifier with Digidata1550M. […] Ligand solutions were applied to the oocytes with an approximate flow rate of 1.2 m/s and current responses measured. Oocytes were exposed to the ligand solution until a distinct current peak was observed followed by a wash with the recording solution until current returned to baseline for a minimum of 10 seconds until the next ligand exposure. For BAPTA-AM exposed oocytes, oocytes were incubated in 100 μM BAPTA-AM for four hours prior to electrophysiology recording. Data was analyzed using Clampex 9.2 (Axon Instruments, USA) and statistical analysis and graphs produced in Prism (GraphPad version 9.1). T-tests were used to compare responses with error bars representing standard error. For concentration-response curves, individual oocyte current response to the different ligand concentrations were normalized to the response obtained with 300 μM. Data was fit using the Graphpad “log(agonist) vs normalized response–variable slope” equation, with 95% confidence intervals being reported. […] For examples of oocyte responses, recordings were filtered in Clampfit using the lowband pass at 40 Hz cutoff.

The target in assay [2] is Dme-ACR-16 (Dracunculus medinensis, UniProt A0A0N4U0T6). Put plainly: cell-based. In kind it is cell-based. The procedure: as §1, §2, §3, §4
Assay [3] addresses Asu-ACR-16 (Ascaris suum, UniProt F1KYJ9). Put plainly: cell-based. In kind it is cell-based. The procedure:
as §1, §2, §3, §4

In assay [4] the test system is Gpu-ACR-16. Put plainly: Voltage-clamp electrophysiology, N-AChR reconstituted in Xenopus laevis oocytes. In kind it is cell-based, Gonglyonema pulchrum. The note with it: for response to 100 μM ligand relative to 100 μM ACh (in words): agonist panel, Fig 5C; for current response to 100 μM nicotine: co-injected: H. contortus RIC-3. The procedure:
as §1, §2, §3, §4

The target of assay [5] is Asu-ACR-16-bmaICL chimera (Ascaris suum; Brugia malayi, UniProt A0A4E9FSR7+F1KYJ9). The assay is classed as cell-based, A. suum (B. malayi ICL). Particulars: compared to Asu-ACR-16 profile, S3D Fig. The procedure: B. malayi acr-16 and accessory proteins ric-3, unc-50, unc-74 and molo-1 were cloned from adult female B. malayi cDNA received as a gift from Dr. T. Geary using the primers described in S1 Table. B. malayi eat-18 was prepared from two overlapping oligonucleotide primers. Other subunits were synthesized from their predicted genome sequence (Gene Universal, USA) (S2 Table). […] All sequences were cloned into the pTD2 oocyte expression vector. Asu-ACR-16 and Tzc-ACR-16 chimeras were constructed using appropriate restriction enzymes, reciprocal exchange through ligation and confirmed by sequencing (McLab, USA).
as §1, §2
All drugs were dissolved in recording solution (NaCl 100 mM, KCl 2.5 mM, CaCl2 1 mM, HEPES 5 mM, pH 7.3) to a stock concentration of 10 mM and diluted to their final recording concentrations. […]
Oocytes were placed individually in an RC3Z chamber (Harvard Apparatus, USA) submerged in recording solution (NaCl 100 mM, KCl 2.5 mM, CaCl2 1 mM, HEPES 5 mM, pH 7.3). […] Ligand solutions were applied to the oocytes with an approximate flow rate of 1.2 m/s and current responses measured. […] Data was analyzed using Clampex 9.2 (Axon Instruments, USA) and statistical analysis and graphs produced in Prism (GraphPad version 9.1). […]

In assay [6] the test system is N. americanus N-AChR. Particulars: accessory protein Ric-3; ref [33]; read-out: EC50 μM NIC; cited from earlier work.
In assay [7] the test system is P. equorum N-AChR. The note with it: accessory protein Ric-3; ref [40]; read-out: EC50 μM NIC; cited from earlier work.
Assay [8] deals with Bma-ACR-16. The assay is classed as cell-based, Brugia malayi. The note with it: co-injected: H. contortus RIC-3. The procedure:
as §1, §2, §3, §4

Assay [9] deals with C. elegans N-AChR. Details: method as in Charvet et al., 2018 [40]. The note with it: accessory protein Ric-3; ref Charvet et al., 2018 [40]; read-out: EC50 μM NIC; cited from earlier work.
Assay [10] concerns A celanicum N-AChR. Particulars: accessory protein Ric-3; ref [33]; read-out: EC50 μM NIC; cited from earlier work.

Sequence of Dme-ACR-16 (A0A0N4U0T6 entry or part of it): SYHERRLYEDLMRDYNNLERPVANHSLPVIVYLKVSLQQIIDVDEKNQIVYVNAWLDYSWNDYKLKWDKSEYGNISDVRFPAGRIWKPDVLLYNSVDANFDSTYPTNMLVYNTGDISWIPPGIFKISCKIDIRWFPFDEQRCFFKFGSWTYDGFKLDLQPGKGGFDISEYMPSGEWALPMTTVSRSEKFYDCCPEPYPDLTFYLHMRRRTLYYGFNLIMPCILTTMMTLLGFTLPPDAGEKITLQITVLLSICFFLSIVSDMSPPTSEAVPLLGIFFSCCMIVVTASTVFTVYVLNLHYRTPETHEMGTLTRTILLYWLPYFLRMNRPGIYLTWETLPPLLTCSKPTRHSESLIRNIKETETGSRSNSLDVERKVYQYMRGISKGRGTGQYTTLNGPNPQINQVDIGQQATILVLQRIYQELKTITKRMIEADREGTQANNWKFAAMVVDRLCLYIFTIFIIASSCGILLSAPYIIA
Sequence of Tzc-ACR-16 (A0A158RD20 entry or part of it): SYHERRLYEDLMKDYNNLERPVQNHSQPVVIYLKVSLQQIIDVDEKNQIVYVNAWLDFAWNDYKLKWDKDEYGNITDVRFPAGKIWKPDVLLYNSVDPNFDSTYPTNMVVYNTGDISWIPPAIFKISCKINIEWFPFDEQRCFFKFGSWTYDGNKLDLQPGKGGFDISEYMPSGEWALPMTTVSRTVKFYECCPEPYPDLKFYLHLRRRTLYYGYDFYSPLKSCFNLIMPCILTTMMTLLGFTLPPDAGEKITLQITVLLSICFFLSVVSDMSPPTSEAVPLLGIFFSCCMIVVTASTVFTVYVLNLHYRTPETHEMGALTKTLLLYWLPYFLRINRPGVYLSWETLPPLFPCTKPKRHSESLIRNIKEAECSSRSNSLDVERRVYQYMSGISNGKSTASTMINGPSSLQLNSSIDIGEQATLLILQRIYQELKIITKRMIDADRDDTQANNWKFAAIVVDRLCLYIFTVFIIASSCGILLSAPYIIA

Regarding `C[N+](C)(CCOc1ccccc1)Cc1ccccc1` [BEPH, bephenium], the “response to 100 μM ligand relative to 100 μM ACh (in words)” value in [1] (agonist panel, Fig 5D) was “No response”; in [2] (agonist panel, Fig 5B) it was “No response”; in assay [3] (agonist panel, Fig 5A) it was “No response”; in assay [4] it was “No response”.
Turning to `C[N+](C)(C)CC(=O)O` [BET, betaine], the “response to 100 μM ligand relative to 100 μM ACh (in words)” value in assay [1] (agonist panel, Fig 5D) is on record as “No response”; in assay [2] (agonist panel, Fig 5B), “No response”; in assay [3] (agonist panel, Fig 5A), “No response”; in assay [4] it was “No response”.
Take `NCCc1ccc(O)c(O)c1` [DA, dopamine]: the “response to 100 μM ligand relative to 100 μM ACh (in words)” value was “No response” in assay [1] (agonist panel, Fig 5D); “No response” in assay [2] (agonist panel, Fig 5B); “No response” in [3] (agonist panel, Fig 5A); “No response” in [4].
`C[N+]1(C)CCN(c2ccccc2)CC1` [DMPP, dimethylphenylpiperazinium]: the “response to 100 μM ligand relative to 100 μM ACh (in words)” value is “smaller response” in assay [1] (agonist panel, Fig 5D); “smaller response” in assay [2] (agonist panel, Fig 5B); “smaller response” in assay [3] (agonist panel, Fig 5A); “smaller response” in assay [4]. In assay [5], the “response to 100 μM ligand relative to acetylcholine (in words)” value is on record as “higher responses”.
On to `CNC[C@H](O)c1ccc(O)c(O)c1` [EPI, epinephrine], for which the “response to 100 μM ligand relative to 100 μM ACh (in words)” value in [1], in assay [2], in assay [3] and in assay [4] was “No response” each time.
In the case of `c1ccc([C@H]2CN3CCSC3=N2)cc1` [LEV, (-)-tetramisole hydrochloride], the “response to 100 μM ligand relative to 100 μM ACh (in words)” value in assay [1] (agonist panel, Fig 5D) is listed as “No response”; in [2] (agonist panel, Fig 5B), “No response”; in [3] (agonist panel, Fig 5A), “No response”; in [4], “No response”.
With `Cc1ccsc1/C=C/C1=NCCCN1C` [MOR, morantel], the “response to 100 μM ligand relative to 100 μM ACh (in words)” value is listed as “minimal response” in [1] (agonist panel, Fig 5D); “minimal response” in [2] (agonist panel, Fig 5B); “minimal response” in [3] (agonist panel, Fig 5A); “minimal response” in assay [4].
Regarding `CN1CCC[C@H]1c1cccnc1` [NIC, (-)-nicotine hydrogen tartrate], the EC50 – broadly, the concentration giving half of the maximal effect – was 598 ± 59.1 µM in [6]; 2.9 ± 0.5 µM in assay [7]; 4.9 µM in [1]; 3.8 µM in assay [2]; 5.1 µM in assay [3]; 15.1 ± 1.3 µM in assay [9]. Also, the EC50 in assay [10] was 24.4 ± 2.89 µM; in assay [4] (concentration-response 0.3-300 μM, normalized to 300 μM, with 95% CI, read-out: EC50 NIC) it was 2.1 µM. Besides, the “current response to 100 μM nicotine” value was 0 ± 0 nA and no measurable current in assay [8]; 481 ± 45 nA and 400–600 nA in assay [1]; 2025 ± 81 nA and 2000–2200 nA in assay [2]; 2067 ± 74 nA and 2000–2200 nA in assay [3]; ~ 1400 nA in assay [4]; 1231 ± 98 nA in assay [4] (listed as nicotine). For the same compound, the “response to 100 μM ligand relative to 100 μM ACh (in words)” value in [1], in [2], in assay [3] and in assay [4] was “large response” each time.
With `NC[C@H](O)c1ccc(O)c(O)c1` [NOR, norepinephrine], the “response to 100 μM ligand relative to 100 μM ACh (in words)” value is “No response” in assay [1] (agonist panel, Fig 5D); “No response” in assay [2] (agonist panel, Fig 5B); “No response” in assay [3] (agonist panel, Fig 5A); “No response” in assay [4].
As for `CN1CCCN=C1/C=C/c1cccc(O)c1` [OXA, oxantel], the “response to 100 μM ligand relative to 100 μM ACh (in words)” value in [1] (agonist panel, Fig 5D) was “smaller response”; in [2] (agonist panel, Fig 5B), “smaller response”; in assay [3] (agonist panel, Fig 5A), “smaller response”; in [4] it was “smaller response”.
For `CN1CCCN=C1/C=C/c1cccs1` [PYR, pyrantel], the “response to 100 μM ligand relative to 100 μM ACh (in words)” value in assay [1] (agonist panel, Fig 5D) is listed as “minimal response”; in [2] (agonist panel, Fig 5B), “minimal response”; in assay [3] (agonist panel, Fig 5A) it was “minimal response”; in [4], “minimal response”.
With `NCCc1ccc(O)cc1` [TYR, tyramine], the “response to 100 μM ligand relative to 100 μM ACh (in words)” value is given as “No response” in assay [1] (agonist panel, Fig 5D); “No response” in [2] (agonist panel, Fig 5B); “No response” in [3] (agonist panel, Fig 5A); “No response” in assay [4].
